In series [1] the test system is green peach aphid (Myzus persicae). Briefly: Myzus test (MYZUPE spray treatment). The series is classed as in vivo. As to conditions: 500 g/ha, spray treatment of Chinese cabbage disks, 100% = all aphids killed. Here is the method:
Myzus Test (MYZUPE Spray Treatment)
To produce a suitable preparation of active compound, 1 part by weight of active compound is mixed with the stated amounts of solvents and emulsifier, and the concentrate is diluted with emulsifier-containing water to the desired concentration.
Disks of Chinese cabbage (Brassica pekinensis) which are infested by all stages of green peach aphid (Myzus persicae) are sprayed with a preparation of active compound of the desired concentration.
(§1) After the desired period of time, the effect in % is determined. 100% means that all aphids have been killed; 0% means that none of the aphids have been killed.

The nature of series [2]: logP determination by HPLC on reversed-phase column (EEC Directive 79/831 annex V.A8). The series is classed as physicochemical. Here is the method: Calibration was carried out using unbranched alkan-2-ones (having 3 to 16 carbon atoms) with known logP values (determination of logP values by the retention times using linear interpolation between two successive alkanone).

A further series deals with Myzus persicae. Briefly: Myzus persicae (MYZUPE U). As to conditions: 30 ppm, ingestion, 100% = all aphids killed. Type of series: in vivo. Here is the method: Myzus Persicae (MYZUPE U)
To produce a suitable preparation of active compound, the active compound is mixed with the stated amounts of solvent, and the concentrate is diluted with stained water to the desired concentration.
The Myzus persicae are provided with a preparation of active compound of the desired concentration for ingestion.
as §1

Series [3] relates to cotton aphid (Aphis gossypii). Briefly: Aphis gossypii test (APHIGO). Type of series: in vivo. As to conditions: 100 ppm, cotton leaves dipped, 100% = all aphids killed. Here is the method: Aphis Gossypii Test (APHIGO)
To produce a suitable preparation of active compound, 1 part by weight of active compound is mixed with the stated amounts of solvent and emulsifier, and the concentrate is diluted with emulsifier-containing water to the desired concentration.
Cotton leaves (Gossypium hirsutum) which are heavily infested by the cotton aphid (Aphis gossypii) are treated by being dipped into the preparation of active compound of the desired concentration.
After the desired period of time, the kill in % is determined. 100% means that all aphids have been killed; 0% means that none of the aphids have been killed.

Setting [4] is: reversed-phase C18 HPLC column, HPLC, reversed-phase C 18, 43° C., acidic range (pH 2.3), marked a).
Where [5] appears, read: reversed-phase HPLC column, in the preparation example, pH range not marked.

Experimental findings from patent publication US20090005403A1, “Alkinyl-Oxypyrimidines Used in the Form of Pesticides” (priority 2005, published 2009) are described below.

For orientation: chromatographic logP means lipophilicity estimated from chromatographic retention. A higher chromatographic logP goes with a more lipophilic compound.

For the compound `CC#CCOc1cc(-c2cccs2)ncn1` [Example 6], the “effect in % (% 5 d)” value in series [1] is given as 90%. The compound also registered a chromatographic logP in series [2] (setting [4]) of 2.95.

As to `CC#CCOc1cc(-n2ccnc2)ncn1` [Example 12], in the series on Myzus persicae, the “effect in % (% 6-7 d)” value is 100%. This compound also displayed a chromatographic logP in series [2] (setting [4]) of 1.

`CC#CCOc1cc(-n2cc(Cl)cn2)ncn1` [Example 2, 4-butynyloxy-6-(4-chloropyrazol-1-yl)pyrimidine] yielded a chromatographic logP in series [2] (setting [5]) of 3.65.

For the compound `CC#CCOc1cc(-n2cccn2)ncn1` [Example 8], in series [1], the “effect in % (% 5 d)” value is on record as 90%. The compound also yielded a chromatographic logP in series [2] (setting [4]) of 2.55.

`Clc1cc(-c2ccsc2)ncn1` [II-1, 4-chloro-6-(3-thienyl)pyrimidine] had a chromatographic logP in series [2] (setting [5]) of 2.31.

As to `CC#CCOc1cc(-c2cscc2C)ncn1` [Example 25], the “effect in % (% 5 d)” value in series [1] is 80%. Also, the “kill in % (% 6 d)” value in series [3] worked out at 80%. For the same compound, the chromatographic logP in series [2] (setting [4]) was 3.26.

Consider `CC#CCOc1cc(-c2ccsc2)ncn1` [Example 1, 4-(2-butyn-1-yl-oxy)-6-(3-thienyl)-pyrimidine], for which the chromatographic logP in series [2] (setting [5]) was determined as 2.84.

In the case of `CC#CCOc1cc(-c2ccccn2)ncn1` [Example 3], in series [1], the “effect in % (% 5 d)” value was 80%. The chromatographic logP in series [2] (setting [4]) was found to be 2.31.
